What all share (type): functional, cell-based
Test [1] in a line: Antagonist activity at human alpha-7 nAChR Y188A mutant coexpressed with human Ric3 in tsA201 cells by FMP assay.
A short description of test [2]: Antagonist activity at human alpha7 nAChR W149Y mutant co-expressed with human Ric3 in tsA201 cells by FMP assay.
Test [3] in a line: Antagonist activity at human alpha7nAChR W149A mutant co-expressed with human Ric3 in tsA201 cells by FMP assay.
Test [4] in a line: Antagonist activity at human alpha-7 nAChR Y195A mutant coexpressed with human Ric3 in tsA201 cells by FMP assay.
The nature of test [5]: Antagonist activity at human alpha7nAChR Y93A mutant co-expressed with human Ric3 in tsA201 cells by FMP assay.

As for `CC(=O)OCC[N+](C)(C)C` [ACETYLCHOLINE], the EC50 in test [1] (read-out: EC50) is 3900 µM; in test [1] (read-out: pEC50 (converted)) it was 3890 µM; in test [2] (read-out: EC50), 1500 µM; in test [2] (read-out: pEC50 (converted)) it was 1580 µM; in test [3] (read-out: EC50) it was greater than 30000 µM; in test [3] (read-out: pEC50 (converted)) it was greater than 31600 µM. The EC50 in test [4] (read-out: EC50) is 260 µM; in test [4] (read-out: pEC50 (converted)), 257 µM; in test [5] (read-out: EC50), 81 µM; in test [5] (read-out: pEC50 (converted)), 81.3 µM.

For the origin of these results see ChEMBL document CHEMBL1148788 (J Med Chem, 2007).
